Laboratory results from patent US20230085307A1, “PYRIDAZINONE COMPOUND AND HERBICIDE” (NISSAN CHEMICAL CORPORATION, priority 2019, published 2023).

Tests used:
barnyard grass [1] = assay: Test Example 5: herbicidal effect by foliage application, plastic box (Table 20, symbol H); format: in vivo, barnyard grass (Echinochloa crus-galli); conditions: for H: barnyard grass, herbicidal effect grade: foliage application, 320 g/ha, three weeks after application
In short: (§1)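 Post-emergence foliar test in sterilized diluvial soil. Compound applied as water-diluted emulsion at a predetermined rate to 14-day-old plants; evaluation at three weeks.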

green foxtail [2] = assay: Test Example 5: herbicidal effect by foliage application, plastic box (Table 20, symbol G); format: in vivo, green foxtail (Setaria viridis); conditions: for G: green foxtail, herbicidal effect grade: foliage application, 320 g/ha, three weeks after application
In short: as §1

Chinese sprangletop = assay: Test Example 3: herbicidal effect by foliage application, Wagner pot (Table 18, symbol D); format: in vivo, chinese sprangletop (Leptochloa chinensis); conditions: for herbicidal effect on D: Chinese sprangletop: amount of applied herbicide 320 g/ha
In short: (§2)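 Plants were sown in alluvial soil held under 0.1–0.5 cm standing water and grown 14 days in a greenhouse at 25–30 °C. An emulsifiable formulation, water-diluted to the set dose, was then sprayed onto the foliage, and effects were scored three weeks later using previously defined criteria.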

barnyard grass [3] = assay: Test Example 3: herbicidal effect by foliage application, Wagner pot (Table 18, symbol H); format: in vivo, barnyard grass (Echinochloa crus-galli); conditions: for herbicidal effect on H: barnyard grass: amount of applied herbicide 320 g/ha
In short: as §2

redroot pigweed [4] = assay: Test Example 5: herbicidal effect by foliage application, plastic box (Table 20, symbol N); format: in vivo, redroot pigweed (Amaranthus retroflexus); conditions: for N: redroot pigweed, herbicidal effect grade: foliage application, 320 g/ha, three weeks after application
In short: as §1

southern crabgrass [5] = assay: Test Example 5: herbicidal effect by foliage application, plastic box (Table 20, symbol F); format: in vivo, southern crabgrass (Digitaria ciliaris); conditions: for F: southern crabgrass, herbicidal effect grade: foliage application, 320 g/ha, three weeks after application
In short: as §1

velvetleaf [6] = assay: Test Example 4: herbicidal effect by soil treatment (Table 19, symbol M); format: in vivo, velvetleaf (Abutilon theophrasti); conditions: amount of applied herbicide 320 g/ha
In short: (§3)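 Emulsion of test compound, water-diluted to predetermined amount, sprayed on soil after sowing (seed depth ~1.5 cm, sterilized diluvial soil). Greenhouse, 25–30° C. Effect graded at three weeks post-spray.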

lambsquarters [7] = assay: Test Example 4: herbicidal effect by soil treatment (Table 19, symbol O); format: in vivo, lambsquarters (Chenopodium album); conditions: amount of applied herbicide 320 g/ha
In short: as §3

oval-leafed pondweed [8] = assay: Test Example 1: herbicidal activity, application before weed generation under submerged conditions (Table 16, symbol C); format: in vivo, oval-leafed pondweed (Monochoria vaginalis); conditions: amount of applied herbicide 320 g/ha
In short: (§4)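 Emulsion formulation, water-diluted to set dose, was put onto the flooded surface (4 cm depth, alluvial soil) the same day weeds were sown and 2.5-leaf rice transplanted. After 3 weeks at 25-30 °C under glass, each species was rated 0 (≤5% kill) to 5 (≥90% kill).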

barnyard grass [9] = assay: Test Example 4: herbicidal effect by soil treatment (Table 19, symbol H); format: in vivo, barnyard grass (Echinochloa crus-galli); conditions: amount of applied herbicide 320 g/ha
In short: as §3

green foxtail [10] = assay: Test Example 4: herbicidal effect by soil treatment (Table 19, symbol G); format: in vivo, green foxtail (Setaria viridis); conditions: amount of applied herbicide 320 g/ha
In short: as §3

southern crabgrass [11] = assay: Test Example 4: herbicidal effect by soil treatment (Table 19, symbol F); format: in vivo, southern crabgrass (Digitaria ciliaris); conditions: amount of applied herbicide 320 g/ha
In short: as §3

Japanese bulrush [12] = assay: Test Example 1: herbicidal activity, application before weed generation under submerged conditions (Table 16, symbol B); format: in vivo, Japanese bulrush (Schoenoplectus juncoides); conditions: amount of applied herbicide 320 g/ha
In short: as §4

Japanese bulrush [13] = assay: Test Example 2: herbicidal activity, application during weed generation under submerged conditions (Table 17, symbol B); format: in vivo, Japanese bulrush (Schoenoplectus juncoides); conditions: AAH 320 g/ha; application during weed generation, submerged conditions
In short: (§5)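 In this pot test, flooded alluvial soil (water depth 4 cm) holds all three species sown as a mixture. Once seedlings have one to two leaves, the compound's emulsion, thinned with water to the intended dose, is poured on the water; grading follows after three weeks on the earlier criteria.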

oval-leafed pondweed [14] = assay: Test Example 2: herbicidal activity, application during weed generation under submerged conditions (Table 17, symbol C); format: in vivo, oval-leafed pondweed (Monochoria vaginalis); conditions: AAH 320 g/ha; application during weed generation, submerged conditions
In short: as §5

redroot pigweed [15] = assay: Test Example 4: herbicidal effect by soil treatment (Table 19, symbol N); format: in vivo, redroot pigweed (Amaranthus retroflexus); conditions: amount of applied herbicide 320 g/ha
In short: as §3

late watergrass [16] = assay: Test Example 2: herbicidal activity, application during weed generation under submerged conditions (Table 17, symbol A); format: in vivo, late watergrass (Echinochloa oryzicola); conditions: AAH 320 g/ha; application during weed generation, submerged conditions
In short: as §5

velvetleaf [17] = assay: Test Example 5: herbicidal effect by foliage application, plastic box (Table 20, symbol M); format: in vivo, velvetleaf (Abutilon theophrasti); conditions: for M: velvetleaf, herbicidal effect grade: foliage application, 320 g/ha, three weeks after application
In short: as §1

lambsquarters [18] = assay: Test Example 5: herbicidal effect by foliage application, plastic box (Table 20, symbol O); format: in vivo, lambsquarters (Chenopodium album); conditions: for O: lambsquarters, herbicidal effect grade: foliage application, 320 g/ha, three weeks after application
In short: as §1

late watergrass [19] = assay: Test Example 1: herbicidal activity, application before weed generation under submerged conditions (Table 16, symbol A); format: in vivo, late watergrass (Echinochloa oryzicola); conditions: amount of applied herbicide 320 g/ha
In short: as §4

rice flat sedge = assay: Test Example 3: herbicidal effect by foliage application, Wagner pot (Table 18, symbol E); format: in vivo, rice flat sedge (Cyperus iria); conditions: for herbicidal effect on E: rice flat sedge: amount of applied herbicide 320 g/ha
In short: as §2

chickweed = assay: Test Example 5: herbicidal effect by foliage application, plastic box (Table 20, symbol P); format: in vivo, common chickweed (Stellaria media); conditions: amount of applied herbicide 320 g/ha; foliage application after 14-day growth; evaluated three weeks after application
In short: as §1

windgrass = assay: Test Example 5: herbicidal effect by foliage application, plastic box (Table 20, symbol L); format: in vivo, windgrass (Apera spica-venti); conditions: amount of applied herbicide 320 g/ha; foliage application after 14-day growth; evaluated three weeks after application
In short: as §1

wild oat = assay: Test Example 5: herbicidal effect by foliage application, plastic box (Table 20, symbol I); format: in vivo, wild oat (Avena fatua); conditions: amount of applied herbicide 320 g/ha; foliage application after 14-day growth; evaluated three weeks after application
In short: as §1

blackgrass = assay: Test Example 5: herbicidal effect by foliage application, plastic box (Table 20, symbol J); format: in vivo, blackgrass (Alopecurus myosuroides); conditions: amount of applied herbicide 320 g/ha; foliage application after 14-day growth; evaluated three weeks after application
In short: as §1

persian speedwell = assay: Test Example 5: herbicidal effect by foliage application, plastic box (Table 20, symbol R); format: in vivo, Persian speedwell (Veronica persica); conditions: amount of applied herbicide 320 g/ha; foliage application after 14-day growth; evaluated three weeks after application
In short: as §1

[20] = amount of applied herbicide 320 g/ha, foliage application after 14-day growth, evaluated three weeks after application

COCCOc1ccc(-c2sc3ccc(F)cc3c2-c2c(O)c(Cl)nn(C)c2=O)cc1 [2-440]
H: barnyard grass, herbicidal effect grade (barnyard grass [1]): 5 (Herbicidal rate of 90% or more (almost completely withered))
G: green foxtail, herbicidal effect grade (green foxtail [2]): 5 (Herbicidal rate of 90% or more (almost completely withered))
herbicidal effect on D: Chinese sprangletop (Chinese sprangletop): 0 (Herbicidal rate of 5% or less (almost no effect))
herbicidal effect on H: barnyard grass (barnyard grass [3]): 5 (Herbicidal rate of 90% or more (almost completely withered))
N: redroot pigweed, herbicidal effect grade (redroot pigweed [4]): 5 (Herbicidal rate of 90% or more (almost completely withered))
F: southern crabgrass, herbicidal effect grade (southern crabgrass [5]): 5 (Herbicidal rate of 90% or more (almost completely withered))
herbicidal effect, M: velvetleaf (velvetleaf [6]): 4 (Herbicidal rate of 70% or more and less than 90%)
herbicidal effect, O: lambsquarters (lambsquarters [7]): 5 (Herbicidal rate of 90% or more (almost completely withered))
Herbicidal effect, C: oval-leafed pondweed (oval-leafed pondweed [8]): 3 (Herbicidal rate of 40% or more and less than 70%)
herbicidal effect, H: barnyard grass (barnyard grass [9]): 3 (Herbicidal rate of 40% or more and less than 70%)
herbicidal effect, G: green foxtail (green foxtail [10]): 5 (Herbicidal rate of 90% or more (almost completely withered))
herbicidal effect, F: southern crabgrass (southern crabgrass [11]): 3 (Herbicidal rate of 40% or more and less than 70%)
Herbicidal effect, B: Japanese bulrush (Japanese bulrush [12]): 4 (Herbicidal rate of 70% or more and less than 90%)
herbicidal effect rating, B: Japanese bulrush (Japanese bulrush [13]): 3 (Herbicidal rate of 40% or more and less than 70%)
herbicidal effect rating, C: oval-leafed pondweed (oval-leafed pondweed [14]): 3 (Herbicidal rate of 40% or more and less than 70%)
herbicidal effect, N: redroot pigweed (redroot pigweed [15]): 5 (Herbicidal rate of 90% or more (almost completely withered))
herbicidal effect rating, A: late watergrass (late watergrass [16]): 3 (Herbicidal rate of 40% or more and less than 70%)
M: velvetleaf, herbicidal effect grade (velvetleaf [17]): 5 (Herbicidal rate of 90% or more (almost completely withered))
O: lambsquarters, herbicidal effect grade (lambsquarters [18]): 5 (Herbicidal rate of 90% or more (almost completely withered))
Herbicidal effect, A: late watergrass (late watergrass [19]): 3 (Herbicidal rate of 40% or more and less than 70%)
herbicidal effect on E: rice flat sedge (rice flat sedge): 0 (Herbicidal rate of 5% or less (almost no effect))

COCC[S+]([O-])c1ccc(-c2sc3ccc(F)cc3c2-c2c(O)c(C)nn(C)c2=O)cc1 (centres unmarked) [2-454]
H: barnyard grass, herbicidal effect grade (barnyard grass [1]): 5 (Herbicidal rate of 90% or more (almost completely withered))
G: green foxtail, herbicidal effect grade (green foxtail [2]): 5 (Herbicidal rate of 90% or more (almost completely withered))
herbicidal effect on D: Chinese sprangletop (Chinese sprangletop): 2 (Herbicidal rate of 20% or more and less than 40%)
herbicidal effect on H: barnyard grass (barnyard grass [3]): 5 (Herbicidal rate of 90% or more (almost completely withered))
N: redroot pigweed, herbicidal effect grade (redroot pigweed [4]): 5 (Herbicidal rate of 90% or more (almost completely withered))
F: southern crabgrass, herbicidal effect grade (southern crabgrass [5]): 5 (Herbicidal rate of 90% or more (almost completely withered))
herbicidal effect, M: velvetleaf (velvetleaf [6]): 3 (Herbicidal rate of 40% or more and less than 70%)
herbicidal effect, O: lambsquarters (lambsquarters [7]): 4 (Herbicidal rate of 70% or more and less than 90%)
Herbicidal effect, C: oval-leafed pondweed (oval-leafed pondweed [8]): 0 (Herbicidal rate of 5% or less (almost no effect))
herbicidal effect, H: barnyard grass (barnyard grass [9]): 4 (Herbicidal rate of 70% or more and less than 90%)
herbicidal effect, G: green foxtail (green foxtail [10]): 5 (Herbicidal rate of 90% or more (almost completely withered))
herbicidal effect, F: southern crabgrass (southern crabgrass [11]): 5 (Herbicidal rate of 90% or more (almost completely withered))
Herbicidal effect, B: Japanese bulrush (Japanese bulrush [12]): 0 (Herbicidal rate of 5% or less (almost no effect))
herbicidal effect rating, B: Japanese bulrush (Japanese bulrush [13]): 0 (Herbicidal rate of 5% or less (almost no effect))
herbicidal effect rating, C: oval-leafed pondweed (oval-leafed pondweed [14]): 0 (Herbicidal rate of 5% or less (almost no effect))
herbicidal effect, N: redroot pigweed (redroot pigweed [15]): 5 (Herbicidal rate of 90% or more (almost completely withered))
herbicidal effect rating, A: late watergrass (late watergrass [16]): 2 (Herbicidal rate of 20% or more and less than 40%)
M: velvetleaf, herbicidal effect grade (velvetleaf [17]): 5 (Herbicidal rate of 90% or more (almost completely withered))
O: lambsquarters, herbicidal effect grade (lambsquarters [18]): 5 (Herbicidal rate of 90% or more (almost completely withered))
Herbicidal effect, A: late watergrass (late watergrass [19]): 3 (Herbicidal rate of 40% or more and less than 70%)
herbicidal effect on E: rice flat sedge (rice flat sedge): 5 (Herbicidal rate of 90% or more (almost completely withered))

CCCC(=O)Oc1c(C)nn(C)c(=O)c1-c1c(-c2ccc(C(F)(F)F)cc2)sc2cc(F)c(F)cc12 [5-008]
Herbicidal effect by foliage application, H: barnyard grass (barnyard grass [1]; [20]): 0 (Herbicidal rate of 5% or less (almost no effect))
Herbicidal effect by foliage application, G: green foxtail (green foxtail [2]; [20]): 0 (Herbicidal rate of 5% or less (almost no effect))
herbicidal effect on Chinese sprangletop (D) (Chinese sprangletop; 320 g/ha): 0 (Herbicidal rate of 5% or less (almost no effect))
Herbicidal effect by foliage application, P: chickweed (chickweed): 4 (Herbicidal rate of 70% or more and less than 90%)
herbicidal effect on barnyard grass (H) (barnyard grass [3]; 320 g/ha): 4 (Herbicidal rate of 70% or more and less than 90%)
Herbicidal effect by foliage application, N: redroot pigweed (redroot pigweed [4]; [20]): 3 (Herbicidal rate of 40% or more and less than 70%)
Herbicidal effect by foliage application, F: southern crabgrass (southern crabgrass [5]; [20]): 0 (Herbicidal rate of 5% or less (almost no effect))
Herbicidal effect by foliage application, L: windgrass (windgrass): 1 (Herbicidal rate of 5% or more and less than 20%)
Herbicidal effect, C: oval-leafed pondweed (oval-leafed pondweed [8]): 0 (Herbicidal rate of 5% or less (almost no effect))
Herbicidal effect by foliage application, I: wild oat (wild oat): 0 (Herbicidal rate of 5% or less (almost no effect))
Herbicidal effect by foliage application, J: blackgrass (blackgrass): 0 (Herbicidal rate of 5% or less (almost no effect))
Herbicidal effect, B: Japanese bulrush (Japanese bulrush [12]): 0 (Herbicidal rate of 5% or less (almost no effect))
herbicidal effect rating, B: Japanese bulrush (Japanese bulrush [13]): 0 (Herbicidal rate of 5% or less (almost no effect))
herbicidal effect rating, C: oval-leafed pondweed (oval-leafed pondweed [14]): 0 (Herbicidal rate of 5% or less (almost no effect))
herbicidal effect rating, A: late watergrass (late watergrass [16]): 2 (Herbicidal rate of 20% or more and less than 40%)
Herbicidal effect by foliage application, M: velvetleaf (velvetleaf [17]; [20]): 0 (Herbicidal rate of 5% or less (almost no effect))
Herbicidal effect by foliage application, O: lambsquarters (lambsquarters [18]; [20]): 3 (Herbicidal rate of 40% or more and less than 70%)
Herbicidal effect, A: late watergrass (late watergrass [19]): 3 (Herbicidal rate of 40% or more and less than 70%)
Herbicidal effect by foliage application, R: persian speedwell (persian speedwell): 3 (Herbicidal rate of 40% or more and less than 70%)
herbicidal effect on rice flat sedge (E) (rice flat sedge; 320 g/ha): 0 (Herbicidal rate of 5% or less (almost no effect))
